Source: patent US6613718B2, “Aryl ether derivatives and processes for their preparation and herbicidal and desiccant compositions containing them” (Ishihara Sangyo Kaisha, Ltd., priority 2001, dated 2003)

Legend:
Assay type in all cases: in vivo
Conditions in all cases: 14 days after application
[1] = test system: barnyardgrass (Echinochloa crus-galli, ECHCG); assay: Pre-emerge greenhouse herbicide activity screening, phytotoxicity rating
In short: (§1)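 Pre-emerge: seeds sown 1 day before spray; acetone solutions, 15–1000 g ai/ha, track sprayer; soil watered after application, then bottom-watered. Post-emerge: plants at 2-3 leaf stage (sown 8-21 days prior), 0.25% v/v non-ionic surfactant added, bottom-watered only. Rated 0-100 at 14 DAA.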

[2] = test system: common ragweed (Ambrosia artemisiifolia L., AMBEL); assay: as above
In short: as §1

[3] = test system: green foxtail (Setaria viridis, SETVI); assay: as above
In short: as §1

[4] = test system: ivyleaf morningglory (Ipomoea hederacea, IPOHE); assay: as above
In short: as §1

[5] = test system: johnsongrass (Sorghum halepense, SORHA); assay: as above
In short: as §1

[6] = test system: lambsquarters (Chenopodium album, CHEAL); assay: as above
In short: as §1

[7] = test system: large crabgrass (Digitaria sanguinalis, DIGSA); assay: as above
In short: as §1

[8] = test system: redroot pigweed (Amaranthus retroflexus, AMARE); assay: as above
In short: as §1

[9] = test system: sicklepod (Cassia obtusifolia, CASOB); assay: as above
In short: as §1

[10] = test system: velvetleaf (Abutilon theophrasti, ABUTH); assay: as above
In short: as §1

[11] = test system: field corn (Zea mays L., var. Dekalb 535, CORN); assay: Pre-emerge greenhouse screening, crop safety (phytotoxicity rating)
In short: as §1

[12] = test system: soybean (Glycine max L., var. Pella 86, SOY); assay: as above
In short: as §1

[13] = test system: upland rice (Oryza sp., var.Tebonnet, RICE); assay: as above
In short: as §1

[14] = test system: barnyardgrass (Echinochloa crus-galli, ECHCG); assay: Post-emerge greenhouse herbicide activity screening, phytotoxicity rating
In short: as §1

[15] = test system: common ragweed (Ambrosia artemisiifolia L., AMBEL); assay: as above
In short: as §1

[16] = test system: green foxtail (Setaria viridis, SETVI); assay: as above
In short: as §1

[17] = test system: ivyleaf morningglory (Ipomoea hederacea, IPOHE); assay: as above
In short: as §1

[18] = test system: johnsongrass (Sorghum halepense, SORHA); assay: as above
In short: as §1

[19] = test system: lambsquarters (Chenopodium album, CHEAL); assay: as above
In short: as §1

[20] = test system: large crabgrass (Digitaria sanguinalis, DIGSA); assay: as above
In short: as §1

[21] = test system: redroot pigweed (Amaranthus retroflexus, AMARE); assay: as above
In short: as §1

[22] = test system: sicklepod (Cassia obtusifolia, CASOB); assay: as above
In short: as §1

[23] = test system: velvetleaf (Abutilon theophrasti, ABUTH); assay: as above
In short: as §1

[24] = test system: field corn (Zea mays L., var. Dekalb 535, CORN); assay: Post-emerge greenhouse screening, crop safety / corn selectivity (phytotoxicity rating)
In short: as §1

[25] = test system: soybean (Glycine max L., var. Pella 86, SOY); assay: Post-emerge greenhouse screening, crop safety (phytotoxicity rating)
In short: as §1

[26] = test system: upland rice (Oryza sp., var.Tebonnet, RICE); assay: as above
In short: as §1

Cn1nc(-c2cc(Oc3ncccn3)c(Cl)cc2F)c(=O)n(C)c1=S [Compound 4-1, 6-[4-Chloro-2-fluoro-5-(2-pyrimidinyloxy)phenyl]-3,4-dihydro-2,4-dimethyl-3-thioxo-1,2,4-triazin-5(2H)-one]
ECHCG phytotoxicity rating (0-100 scale) ([1]; 125 g ai/ha): 90 | ECHCG phytotoxicity rating (0-100 scale) ([1]; 250 g ai/ha): 99 | AMBEL phytotoxicity rating (0-100 scale) ([2]; 125 g ai/ha): 85 | AMBEL phytotoxicity rating (0-100 scale) ([2]; 250 g ai/ha): 85 | SETVI phytotoxicity rating (0-100 scale) ([3]; 125 g ai/ha): 100 | SETVI phytotoxicity rating (0-100 scale) ([3]; 250 g ai/ha): 100 | IPOHE phytotoxicity rating (0-100 scale) ([4]; 125 g ai/ha): 75 | IPOHE phytotoxicity rating (0-100 scale) ([4]; 250 g ai/ha): 100 | SORHA phytotoxicity rating (0-100 scale) ([5]; 125 g ai/ha): 99 | SORHA phytotoxicity rating (0-100 scale) ([5]; 250 g ai/ha): 100 | CHEAL phytotoxicity rating (0-100 scale) ([6]; 125 g ai/ha): 100 | CHEAL phytotoxicity rating (0-100 scale) ([6]; 250 g ai/ha): 100 | DIGSA phytotoxicity rating (0-100 scale) ([7]; 125 g ai/ha): 99 | DIGSA phytotoxicity rating (0-100 scale) ([7]; 250 g ai/ha): 100 | AMARE phytotoxicity rating (0-100 scale) ([8]; 125 g ai/ha): 100 | AMARE phytotoxicity rating (0-100 scale) ([8]; 250 g ai/ha): 100 | CASOB phytotoxicity rating (0-100 scale) ([9]; 125 g ai/ha): 50 | CASOB phytotoxicity rating (0-100 scale) ([9]; 250 g ai/ha): 60 | ABUTH phytotoxicity rating (0-100 scale) ([10]; 125 g ai/ha): 65 | ABUTH phytotoxicity rating (0-100 scale) ([10]; 250 g ai/ha): 95 | CORN crop damage, phytotoxicity rating (0-100 scale) ([11]; 125 g ai/ha): 0 | CORN crop damage, phytotoxicity rating (0-100 scale) ([11]; 250 g ai/ha): 10 | SOY crop damage, phytotoxicity rating (0-100 scale) ([12]; 125 g ai/ha): 0 | SOY crop damage, phytotoxicity rating (0-100 scale) ([12]; 250 g ai/ha): 0 | RICE crop damage, phytotoxicity rating (0-100 scale) ([13]; 125 g ai/ha): 50 | RICE crop damage, phytotoxicity rating (0-100 scale) ([13]; 250 g ai/ha): 60 | ECHCG phytotoxicity rating (0-100 scale) ([14]; 125 g ai/ha): 55 | ECHCG phytotoxicity rating (0-100 scale) ([14]; 250 g ai/ha): 75 | AMBEL phytotoxicity rating (0-100 scale) ([15]; 125 g ai/ha): 30 | AMBEL phytotoxicity rating (0-100 scale) ([15]; 250 g ai/ha): 60 | SETVI phytotoxicity rating (0-100 scale) ([16]; 125 g ai/ha): 50 | SETVI phytotoxicity rating (0-100 scale) ([16]; 250 g ai/ha): 60 | IPOHE phytotoxicity rating (0-100 scale) ([17]; 125 g ai/ha): 70 | IPOHE phytotoxicity rating (0-100 scale) ([17]; 250 g ai/ha): 70 | SORHA phytotoxicity rating (0-100 scale) ([18]; 125 g ai/ha): 50 | SORHA phytotoxicity rating (0-100 scale) ([18]; 250 g ai/ha): 75 | CHEAL phytotoxicity rating (0-100 scale) ([19]; 125 g ai/ha): 99 | CHEAL phytotoxicity rating (0-100 scale) ([19]; 250 g ai/ha): 100 | DIGSA phytotoxicity rating (0-100 scale) ([20]; 125 g ai/ha): 50 | DIGSA phytotoxicity rating (0-100 scale) ([20]; 250 g ai/ha): 60 | AMARE phytotoxicity rating (0-100 scale) ([21]; 125 g ai/ha): 100 | AMARE phytotoxicity rating (0-100 scale) ([21]; 250 g ai/ha): 100 | CASOB phytotoxicity rating (0-100 scale) ([22]; 125 g ai/ha): 55 | CASOB phytotoxicity rating (0-100 scale) ([22]; 250 g ai/ha): 55 | ABUTH phytotoxicity rating (0-100 scale) ([23]; 125 g ai/ha): 99 | ABUTH phytotoxicity rating (0-100 scale) ([23]; 250 g ai/ha): 100 | CORN crop damage, phytotoxicity rating (0-100 scale) ([24]; 125 g ai/ha): 5 | CORN crop damage, phytotoxicity rating (0-100 scale) ([24]; 250 g ai/ha): 15 | SOY crop damage, phytotoxicity rating (0-100 scale) ([25]; 125 g ai/ha): 50 | SOY crop damage, phytotoxicity rating (0-100 scale) ([25]; 250 g ai/ha): 50 | RICE crop damage, phytotoxicity rating (0-100 scale) ([26]; 125 g ai/ha): 0 | RICE crop damage, phytotoxicity rating (0-100 scale) ([26]; 250 g ai/ha): 15
